Measurements from ChEMBL document CHEMBL4385640, “Synthesis, SAR study, and biological evaluation of novel 2,3-dihydro-1H-imidazo[1,2-a]benzimidazole derivatives as phosphodiesterase 10A inhibitors” (Bioorg Med Chem, 2019).
Converted amounts (≈) assume the structure as drawn. The source made the active and inactive calls. The calls are words filed in the database; no cut-off is given here.

Experiments:
[1] = molecular target: cAMP and cAMP-inhibited cGMP 3',5'-cyclic phosphodiesterase 10A (Homo sapiens, UniProt Q9Y233); test: Inhibition of human PDE10A using cAMP as substrate preincubated for 30 mins followed by substrate addition and measured after 60 mins by HTRF detection assay
Sequence of cAMP and cAMP-inhibited cGMP 3',5'-cyclic phosphodiesterase 10A (Q9Y233 whole entry): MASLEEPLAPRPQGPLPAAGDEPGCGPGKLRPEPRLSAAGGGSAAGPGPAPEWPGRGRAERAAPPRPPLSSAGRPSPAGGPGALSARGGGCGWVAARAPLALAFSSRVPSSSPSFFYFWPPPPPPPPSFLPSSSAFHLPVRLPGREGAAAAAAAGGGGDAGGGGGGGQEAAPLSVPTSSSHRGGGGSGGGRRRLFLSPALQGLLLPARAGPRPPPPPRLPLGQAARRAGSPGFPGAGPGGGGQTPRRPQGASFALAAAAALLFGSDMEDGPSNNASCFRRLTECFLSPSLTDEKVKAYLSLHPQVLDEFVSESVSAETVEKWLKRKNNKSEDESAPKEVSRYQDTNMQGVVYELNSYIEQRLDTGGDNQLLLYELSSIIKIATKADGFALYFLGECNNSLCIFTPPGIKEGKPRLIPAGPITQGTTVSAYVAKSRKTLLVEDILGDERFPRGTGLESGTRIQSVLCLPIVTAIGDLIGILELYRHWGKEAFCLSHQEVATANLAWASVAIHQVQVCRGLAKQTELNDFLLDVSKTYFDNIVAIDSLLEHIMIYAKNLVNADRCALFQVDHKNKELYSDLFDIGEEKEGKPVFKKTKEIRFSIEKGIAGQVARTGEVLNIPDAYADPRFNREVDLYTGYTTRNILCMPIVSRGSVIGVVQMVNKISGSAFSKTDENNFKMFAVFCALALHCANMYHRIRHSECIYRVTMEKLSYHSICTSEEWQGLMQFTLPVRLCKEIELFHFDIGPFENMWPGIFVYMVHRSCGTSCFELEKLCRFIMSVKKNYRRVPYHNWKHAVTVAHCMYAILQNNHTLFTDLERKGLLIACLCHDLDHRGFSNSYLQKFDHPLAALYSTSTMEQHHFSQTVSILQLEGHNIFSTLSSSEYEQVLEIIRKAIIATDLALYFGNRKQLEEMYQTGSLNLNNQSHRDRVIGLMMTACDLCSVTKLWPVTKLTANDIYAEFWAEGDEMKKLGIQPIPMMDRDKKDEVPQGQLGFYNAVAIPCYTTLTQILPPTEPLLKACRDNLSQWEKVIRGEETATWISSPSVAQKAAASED

[2] = Lipophilicity, logD of the compound at pH 7.4; assay type: physicochemical; settings: buffer
Mus musculus [3] = test: Effect on mean number of arm entries in ddY mouse at 0.03 to 0.3 mg/kg, po pretreated 40 mins before MK-801 dosing and measured after 20 mins by Y-maze test; assay type: organism-based; settings: in vivo
CYP3A4 = CYP3A4 (Homo sapiens, UniProt P08684); test: Inhibition of CYP3A4 in human liver microsomes assessed as enzyme residual activity incubated for 30 mins by LC-MS/MS analysis relative to control; assay type: ADME; settings: read-out: Activity
Sequence of CYP3A4 (P08684 whole entry): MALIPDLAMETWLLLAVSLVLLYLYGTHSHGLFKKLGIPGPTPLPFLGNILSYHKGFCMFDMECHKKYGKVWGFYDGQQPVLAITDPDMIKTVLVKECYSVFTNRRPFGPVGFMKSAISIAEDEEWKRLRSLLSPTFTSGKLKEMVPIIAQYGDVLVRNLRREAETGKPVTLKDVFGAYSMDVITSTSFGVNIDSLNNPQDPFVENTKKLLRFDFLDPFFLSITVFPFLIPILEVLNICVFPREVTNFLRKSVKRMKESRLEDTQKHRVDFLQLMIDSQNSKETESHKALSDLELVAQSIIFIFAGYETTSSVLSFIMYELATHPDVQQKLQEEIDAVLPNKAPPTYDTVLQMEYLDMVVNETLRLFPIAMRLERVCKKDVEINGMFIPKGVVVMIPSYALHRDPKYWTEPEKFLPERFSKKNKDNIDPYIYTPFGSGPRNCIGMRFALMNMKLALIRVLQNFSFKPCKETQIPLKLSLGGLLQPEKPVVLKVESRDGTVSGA

CYP2C19 = CYP2C19 (Homo sapiens, UniProt P33261); test: Inhibition of CYP2C19 in human liver microsomes assessed as enzyme residual activity incubated for 30 mins by LC-MS/MS analysis relative to control; assay type: ADME; settings: read-out: Activity
Sequence of CYP2C19 (P33261 whole entry): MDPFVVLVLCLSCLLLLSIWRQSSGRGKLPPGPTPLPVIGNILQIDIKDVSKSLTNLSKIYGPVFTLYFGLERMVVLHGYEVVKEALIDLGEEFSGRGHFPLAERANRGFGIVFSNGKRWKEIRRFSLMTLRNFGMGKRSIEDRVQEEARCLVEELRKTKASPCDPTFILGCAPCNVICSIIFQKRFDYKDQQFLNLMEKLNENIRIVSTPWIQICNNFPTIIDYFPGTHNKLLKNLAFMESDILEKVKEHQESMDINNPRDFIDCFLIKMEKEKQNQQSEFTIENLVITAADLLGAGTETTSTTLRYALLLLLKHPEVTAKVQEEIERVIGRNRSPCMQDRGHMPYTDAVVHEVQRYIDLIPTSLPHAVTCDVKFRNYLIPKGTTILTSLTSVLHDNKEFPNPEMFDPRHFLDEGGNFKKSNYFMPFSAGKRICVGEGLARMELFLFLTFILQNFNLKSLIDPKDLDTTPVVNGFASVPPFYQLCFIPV

CYP1A2 = molecular target: T1, CYP1A2 (Homo sapiens, UniProt P05177); test: Inhibition of CYP1A2 in human liver microsomes assessed as enzyme residual activity incubated for 30 mins by LC-MS/MS analysis relative to control; assay type: ADME; settings: read-out: Activity
T1 sequence (P05177 whole entry): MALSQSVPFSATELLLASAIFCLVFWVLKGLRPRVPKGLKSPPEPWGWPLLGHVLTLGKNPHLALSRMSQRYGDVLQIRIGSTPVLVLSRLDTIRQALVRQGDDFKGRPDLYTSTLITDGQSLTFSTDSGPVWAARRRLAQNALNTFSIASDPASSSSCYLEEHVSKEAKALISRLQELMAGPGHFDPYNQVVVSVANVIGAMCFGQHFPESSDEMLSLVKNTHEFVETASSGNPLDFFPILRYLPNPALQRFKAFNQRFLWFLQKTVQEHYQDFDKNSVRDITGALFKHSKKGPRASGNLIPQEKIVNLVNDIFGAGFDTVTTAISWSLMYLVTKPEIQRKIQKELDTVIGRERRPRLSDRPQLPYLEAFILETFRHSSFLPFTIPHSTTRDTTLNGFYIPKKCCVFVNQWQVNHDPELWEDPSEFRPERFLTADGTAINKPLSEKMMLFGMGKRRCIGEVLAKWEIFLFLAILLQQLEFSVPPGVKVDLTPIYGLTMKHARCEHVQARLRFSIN

[4] = Intrinsic clearance in mouse liver microsomes by LC-MS/MS analysis; assay type: ADME, Microsome; settings: read-out: CLH
Mus musculus [5] = test: Cognition enhancement activity in ddY mouse assessed as suppression of MK-801-induced working memory deficit by measuring decrease in spontaneous alternation behavior at 0.1 to 0.3 mg/kg, po pretreated 40 mins before MK-801 dosing and measured after 20 mins by Y-maze test; assay type: functional, organism-based
[6] = Intrinsic clearance in human liver microsomes by LC-MS/MS analysis; assay type: ADME, Microsome
Mus musculus [7] = test: Antipsychotic activity in ICR mouse assessed as inhibition of Phencyclidine-induced hyperlocomotion pretreated orally followed by Phencyclidine injection and measured after 60 mins; assay type: functional, organism-based
[8] = Toxicity in ICR mouse assessed as induction of catalepsy up to 100 mg/kg, po treated for 60 mins and measured up to 120 secs by bar test; assay type: organism-based; settings: in vivo
[9] = Drug uptake in mouse brain at 0.1 mg/kg, po measured after 1 hr by LC-MS/MS analysis; assay type: ADME, organism-based
[10] = Solubility of the compound in pH 6.8 JP2 buffer; assay type: physicochemical
[11] = Apparent permeability in wild type pig LLC-PK1 cells at 1 uM incubated for 3 hrs by […] LC-MS/MS analysis; assay type: ADME, cell-based, Sus scrofa
Mus musculus [12] = test: Effect on mean number of arm entries in ddY mouse at 1 mg/kg, po pretreated 40 mins before MK-801 dosing and measured after 20 mins by Y-maze test; assay type: organism-based; settings: in vivo
[13] = Drug uptake in mouse plasma at 0.1 mg/kg, po measured after 1 hr by LC-MS/MS analysis; assay type: ADME, organism-based
CYP2D6 = CYP2D6 (Homo sapiens, UniProt P10635); test: Inhibition of CYP2D6 in human liver microsomes assessed as enzyme residual activity incubated for 30 mins by LC-MS/MS analysis relative to control; assay type: ADME; settings: read-out: Activity
Sequence of CYP2D6 (P10635 whole entry): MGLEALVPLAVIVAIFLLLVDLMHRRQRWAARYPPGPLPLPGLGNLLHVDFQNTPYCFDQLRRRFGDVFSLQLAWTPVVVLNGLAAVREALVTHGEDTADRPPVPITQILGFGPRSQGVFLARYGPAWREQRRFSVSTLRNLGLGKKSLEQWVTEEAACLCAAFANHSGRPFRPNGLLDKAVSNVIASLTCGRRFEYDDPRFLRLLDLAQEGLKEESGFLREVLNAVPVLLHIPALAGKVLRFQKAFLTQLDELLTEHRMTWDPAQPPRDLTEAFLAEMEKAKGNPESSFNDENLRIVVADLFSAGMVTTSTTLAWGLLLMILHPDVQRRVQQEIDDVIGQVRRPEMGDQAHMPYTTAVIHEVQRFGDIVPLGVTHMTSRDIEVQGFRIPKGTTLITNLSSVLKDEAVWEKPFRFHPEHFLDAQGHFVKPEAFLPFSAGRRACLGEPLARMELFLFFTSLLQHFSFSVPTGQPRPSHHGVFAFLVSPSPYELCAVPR

CYP2C9 = CYP2C9 (Homo sapiens, UniProt P11712); test: Inhibition of CYP2C9 in human liver microsomes assessed as enzyme residual activity incubated for 30 mins by LC-MS/MS analysis relative to control; assay type: ADME; settings: read-out: Activity
Sequence of CYP2C9 (P11712 whole entry): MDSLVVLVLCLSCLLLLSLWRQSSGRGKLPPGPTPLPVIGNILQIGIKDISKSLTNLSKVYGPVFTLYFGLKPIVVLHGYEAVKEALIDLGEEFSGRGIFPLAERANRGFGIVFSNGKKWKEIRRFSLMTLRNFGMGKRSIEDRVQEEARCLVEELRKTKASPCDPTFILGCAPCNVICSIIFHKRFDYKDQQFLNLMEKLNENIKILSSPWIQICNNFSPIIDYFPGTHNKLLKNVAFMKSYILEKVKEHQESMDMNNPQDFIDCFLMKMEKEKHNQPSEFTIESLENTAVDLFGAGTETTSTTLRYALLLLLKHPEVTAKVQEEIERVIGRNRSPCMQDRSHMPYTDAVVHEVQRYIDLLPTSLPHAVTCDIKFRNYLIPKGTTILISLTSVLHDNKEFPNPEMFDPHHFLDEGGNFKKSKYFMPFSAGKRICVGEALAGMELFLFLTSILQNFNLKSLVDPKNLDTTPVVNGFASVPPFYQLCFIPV

LLC-PK1 = test: Ratio of efflux ratio of LLC-PK1 cells expressing human MDR1 at 1 uM to efflux ratio of wild type LLC-PK1 cells at 1 uM; assay type: ADME, cell-based, Sus scrofa; settings: pig, llc-pk1, 1 µM
CYP2C8 = molecular target: T2, CYP2C8 (Homo sapiens, UniProt P10632); test: Inhibition of CYP2C8 in human liver microsomes assessed as enzyme residual activity incubated for 30 mins by LC-MS/MS analysis relative to control; assay type: ADME; settings: read-out: Activity
T2 sequence (P10632 whole entry): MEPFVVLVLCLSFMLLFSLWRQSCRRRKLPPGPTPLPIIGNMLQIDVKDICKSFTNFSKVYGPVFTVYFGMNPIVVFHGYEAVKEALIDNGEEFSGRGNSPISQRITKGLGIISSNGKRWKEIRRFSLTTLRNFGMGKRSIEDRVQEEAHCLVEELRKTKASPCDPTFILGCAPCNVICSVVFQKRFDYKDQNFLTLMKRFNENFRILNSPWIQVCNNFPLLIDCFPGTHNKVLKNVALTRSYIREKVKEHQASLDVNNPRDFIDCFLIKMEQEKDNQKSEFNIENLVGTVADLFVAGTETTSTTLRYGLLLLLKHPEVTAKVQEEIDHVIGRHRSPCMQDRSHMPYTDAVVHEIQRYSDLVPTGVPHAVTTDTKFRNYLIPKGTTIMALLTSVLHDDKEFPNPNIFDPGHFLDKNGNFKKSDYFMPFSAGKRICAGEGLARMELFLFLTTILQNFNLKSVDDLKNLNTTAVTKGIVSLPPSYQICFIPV

[14] = Total brain to plasma partition coefficient, Kp in mouse at 0.1 mg/kg, po measured after 1 hr by LC-MS/MS analysis; assay type: ADME, organism-based

SMILES	IC50 [1] [nM]	Ratio (LLC-PK1)	also measured
Cc1cc(C)n2nc(CCNc3ncc4ccccc4n3)nc2n1	2080	–	–
Cc1cc(C)n2nc(CCNc3cnc4ccccc4n3)nc2n1	1220	–	–
Cc1cc(C)n2nc(CC(=O)N3CCn4c3nc3cccc(C)c34)nc2n1	279	–	–
Cc1cc(C)n2nc(CCNc3ccc4ccccc4n3)nc2n1	294	–	–
Cc1cc(C)n2nc(CC(=O)N3CCn4c3nc3c(C)cccc34)nc2n1	> 10000	–	–
Cc1cc(C)n2nc(CC(=O)N3CC(C)n4c3nc3ccccc34)nc2n1 (stereo unspecified)	292	–	–
Cc1cc(C)n2nc(CC(=O)N3CCCn4c3nc3ccccc34)nc2n1	1480	–	–
Cc1cc(C)n2nc(CC(=O)N3c4nc5ccccc5n4C[C@H]3c3ccccc3)nc2n1	1920	–	–
Cc1ccc2nc3n(c2c1)CCN3C(=O)Cc1nc2nc(C)cc(C)n2n1	416	–	–
Cc1cc(C)n2cc(CC(=O)N3CCn4c3nc3ccccc34)nc2n1	275	1	–
Cc1ccc2c(c1)nc1n2CCN1C(=O)Cc1nc2nc(C)cc(C)n2n1	441	–	–

The next compounds have a lower IC50 [1] than those just listed; values first:

IC50 [1] [nM]	Ratio (LLC-PK1)	SMILES	also measured
8.4	1.2	Cc1ncc(C)n2nc(CC(=O)N3c4nc5ccccc5n4C[C@@H]3C)nc12	logD [2]: 2; Activity (Mus musculus [3]): Non-Toxic; activity at 0.5 h (CYP3A4): 90%; activity at 0.5 h (CYP2C19): 90%; activity at 0.5 h (CYP1A2): 98%; CLint scaled [4]: 175 mL/min/kg; Activity (Mus musculus [5]): Active; CLH [6]: Stable; Activity (Mus musculus [7]): Dose-dependent effect; Activity [8]: Non-Toxic; concentration at 1 h ([9]; brain, read-out: Drug uptake): 2.2 ng/g; solubility [10]: 100 µM (≈ 36.1 µg/mL); Papp at 3 h, 1 µM [11]: 27.5 ×10⁻⁶ cm/s; Activity (Mus musculus [12]): Toxic; concentration at 1 h [13]: 0.91 ng/mL; activity at 0.5 h (CYP2D6): 102%; activity at 0.5 h (CYP2C9): 96%; activity at 0.5 h (CYP2C8): 99%; Kp at 1 h [14]: 2.3
138	3.6	Cc1cc(C)n2nc(CCN3CCn4c3nc3ccccc34)nc2n1	Papp at 3 h, 1 µM [11]: 19.2 ×10⁻⁶ cm/s
44	1.3	Cc1ncc(C)n2nc(CC(=O)N3CCn4c3nc3ccccc34)nc12	–
75	3.8	Cc1cc(C)n2nc(CC(=O)N3c4nc5ccccc5n4C[C@@H]3c3ccccc3)nc2n1	–
2.9	–	Cc1cc(C)n2nc(CCc3cc(O)n4nc5ncccc5c4n3)nc2n1	–
88	–	Cc1cc(C)n2nc(CCNc3nc4ccccc4n3C)nc2n1	–
135	1.2	Cc1cc(C)n2nc(CC(=O)N3CCn4c3nc3ccccc34)nc2c1	–
69	2.4	Cc1cc(C)n2nc(CC(=O)N3c4nc5ccccc5n4CC3C)nc2n1 (racemic)	–
78	–	Cc1cc(C)n2nc(CCc3ccn4nc5ccccc5c4n3)nc2n1	–
2	1.8	Cc1cc(C)n2nc(CCc3cc(O)n4nc5ccccc5c4n3)nc2n1	logD [2]: 0.3; Drug uptake ([9]; in vivo, 1 h): Not Active; Papp at 3 h, 1 µM [11]: 3.2 ×10⁻⁶ cm/s; concentration at 1 h [13]: 0.59 ng/mL
74	2.1	Cc1cc(C)n2nc(CC(=O)N3c4nc5ccccc5n4CC3(C)C)nc2n1	–
28	2.4	Cc1cc(C)n2nc(CC(=O)N3c4nc5ccccc5n4C[C@@H]3C)nc2n1	–
105	–	Cc1cc(C)n2nc(CCNc3nc4ccccc4[nH]3)nc2n1	–
52	2.3	Cc1cc(C)n2nc(CC(=O)N3CCn4c3nc3ccccc34)nc2n1	Papp at 3 h, 1 µM [11]: 16.8 ×10⁻⁶ cm/s
